Test results published in patent US9855346B2, “Fluorescent dye compositions and uses thereof” (Chang Gung University of Science and Technology, priority 2014, dated 2018).

Assays:
[1] = NMR line width of half-amplitude (mobility of CP); type: physicochemical; settings: line width at half amplitude of methylene protons, 1H-NMR
Method: The mobility of CP in the compositions was evaluated by NMR, by measuring the line widths of half-amplitude (Hz) of methylene protons. Compositions were diluted with deuterium oxide by 3-fold. Neat CP was diluted with chloroform-d. The compositions were loaded into NMR tubes and their ^1H-NMR spectra were examined by Avance 400 spectrometer (Bruker, Bremen, Germany).
The mobility of solid fatty ester in lipid cores of the CP-containing compositions was examined by proton NMR. The line width of signals for neat CP was 3.50 Hz.

[2] = In vivo real-time optical imaging after IV injection; design: species or system Sprague-Dawley rats; settings: rats
Method: Male Sprague-Dawley rats aged 8˜10 weeks was supplied by Lasco (Taipei, Taiwan). Animal experimental protocol was approved by the Institutional Animal Care and Use Committee of Chang Gung University, Taiwan. The rats had free access to water and food at all time. The rats were anesthetized and injected with the compositions of the present invention or the control solution (dimethyl sulfoxide:Tween 80:normal saline=4:2:4) at a DiR dose of 40 μg/kg via femoral vein. In vivo real-time imaging was acquired using Pearl® Impulse at NIR wavelength. Rats were sacrificed 4 h post-injection. The following organs were collected and washed with normal saline: skin, muscle, heart, lungs, liver, spleen, and kidneys. The fluorescence intensity in these organs was assessed Ex Vivo by Pearl® Impulse. In Vivo optical images were taken after ICG, control DiR solution (with 40% v/w dimethyl sulfoxide) and S1-S4 compositions were administered into the rats via intravenous (IV) injection.

Line width (Hz) [1] [Hz] | time post-injection at which fluorescence is detected in the liver (liver clearance) [2] [min] | imaging time ([2]; fluorescence activity in large and small vessels) | SMILES
3.50 | – | – | CCCCCCCCCCCCCCCCOC(=O)CCCCCCCCCCCCCCC [CP, Cetyl palmitate]
– | ≤ 5 | about 5 min | CC1(C)C(/C=C/C=C/C=C/C=C2\N(CCCCS(=O)(=O)O)c3ccc4ccccc4c3C2(C)C)=[N+](CCCCS(=O)(=O)[O-])c2ccc3ccccc3c21 [ICG, Indocyanine green]
